Test results as given in patent US10160729B2, “Hsp70 modulators and methods for making and using the same” (Memorial Sloan Kettering Cancer Center, priority 2014, dated 2018).

These compounds were tested on MOLM-13 cells (assay: Caspase cleavage assay (Caspase3, 7 activation)). Details: Homo sapiens, 16 h treatment, caspase substrate Z-DEVD-R110, read-out: c* Concentration at which 50% of the maximum signal was achieved (caspase activation).
Format: cell-based
How it was run: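 Cells (30,000/well, RPMI) treated 16 h with compound or DMSO in triplicate, then given buffer with 10 mM HEPES pH 7.5, 2 mM EDTA, 0.1% CHAPS and 25 μM Z-DEVD-R110. Fluorescence read once signal stabilized; results given as percentage increase in apoptotic cells versus DMSO-treated control.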

| Structure (SMILES) | EC50 |
| --- | --- |
| COc1cccc(COc2nc(N3CCN(C)CC3)ncc2Sc2ccc(C(N)=O)c(Cl)c2)n1 [compound 123, 2-Chloro-4-((4-((6-methoxypyridin-2-yl)methoxy)-2-(4-methylpiperazin-1-yl)pyrimidin-5-yl)thio)benzamide] | 200 to 400 nM |
| NC(=O)c1ccc(Sc2cnc(N3CCNCC3)nc2OCc2ccccc2)cc1 [compound 167, 4-((4-(Benzyloxy)-2-(piperazin-1-yl)pyrimidin-5-yl)thio)benzamide] | ≥ 1200 nM |
| CC(Oc1ccc(Sc2cnc(N3CCN(C)CC3)nc2OCc2ccccc2)cc1)C(N)=O (centres unmarked) [compound 65, 2-(4-((4-(Benzyloxy)-2-(4-methylpiperazin-1-yl)pyrimidin-5-yl)thio)phenoxy)propanamide] | 400 to 1000 nM |
| NC(=O)c1ccc(Sc2cnc(N3CCN(Cc4ccco4)CC3)nc2OCc2cccc(Cl)c2)cc1C(F)(F)F [compound 228, 4-((4-((3-Chlorobenzyl)oxy)-2-(4-(furan-2-ylmethyl)piperazin-1-yl)pyrimidin-5-yl)thio)-2-(trifluoromethyl)benzamide] | < 200 nM |
| CN1CCN(c2ncc(Sc3ccc(N)nc3)c(OCc3ccc(F)c(Br)c3)n2)CC1 [compound 155, 5-((4-((3-Bromo-4-fluorobenzyl)oxy)-2-(4-methylpiperazin-1-yl)pyrimidin-5-yl)thio)pyridin-2-amine] | < 200 nM |
| COc1cccc(COc2nc(N3CC(N(C)C)C3)ncc2Sc2ccc(C(N)=O)cc2)c1 [190m, 4-((2-(3-(Dimethylamino)azetidin-1-yl)-4-((3-methoxybenzyl)oxy)pyrimidin-5-yl)thio)benzamide] | < 200 nM |
| COc1cncc(COc2nc(N3CCN(C)CC3)ncc2Sc2ccc(C(N)=O)c(Cl)c2)c1 [compound 125, 2-Chloro-4-((4-((5-methoxypyridin-3-yl)methoxy)-2-(4-methylpiperazin-1-yl)pyrimidin-5-yl)thio)benzamide] | < 200 nM |
| C#CCN1CCN(c2ncc(Sc3ccc(C(N)=O)cc3)c(OCc3cccc(N(C)C)c3)n2)CC1 [compound 336, 4-((4-((3-(Dimethylamino)benzyl)oxy)-2-(4-(prop-2-yn-1-yl)piperazin-1-yl)pyrimidin-5-yl)thio)benzamide] | < 200 nM |

Results, then the compound that gave them:

| EC50 | Structure (SMILES) |
| --- | --- |
| < 200 nM | CN1CCN(c2ncc(Sc3ccc(C(N)=O)c(C(F)(F)F)c3)c(OCc3cccc(Cl)c3)n2)CC1 [compound 131, 4-((4-((3-Chlorobenzyl)oxy)-2-(4-methylpiperazin-1-yl)pyrimidin-5-yl)thio)-2-(trifluoromethyl)benzamide] |
| 400 to 1000 nM | CN(C)[C@@H]1CCN(c2ncc(Sc3ccc(C(N)=O)cc3)c(OCc3ccnc(N)c3)n2)C1 [compound 206, (R)-4-((4-((2-Aminopyridin-4-yl)methoxy)-2-(3-(dimethylamino)pyrrolidin-1-yl)pyrimidin-5-yl)thio)benzamide] |
| ≥ 1200 nM | CN(C)c1cccc(COc2nc(N3CCN(CC4CC4)CC3)ncc2Sc2ccc(C(N)=O)c(C(F)(F)F)c2)c1 [compound 343, 4-((2-(4-(Cyclopropylmethyl)piperazin-1-yl)-4-((3-(dimethylamino)benzyl)oxy)pyrimidin-5-yl)thio)-2-(trifluoromethyl)benzamide] |
| 200 to 400 nM | CN(C)[C@@H]1CCN(c2ncc(Sc3ccc(C(N)=O)cc3)c(OCc3cccc(Br)c3)n2)C1 [compound 367, (R)-4-((4-((3-Bromobenzyl)oxy)-2-(3-(dimethylamino)pyrrolidin-1-yl)pyrimidin-5-yl)thio)benzamide] |
| < 200 nM | CN1CCN(c2ncc(Sc3ccc(C(N)=O)cc3)c(OCc3ccc(F)c(N(C)C)c3)n2)CC1 [100c, 4-((4-((3-(Dimethylamino)-4-fluorobenzyl)oxy)-2-(4-methylpiperazin-1-yl)pyrimidin-5-yl)thio)benzamide] |
| 400 to 1000 nM | CN[C@@H]1CCN(c2ncc(Sc3ccc(C(N)=O)c(Cl)c3)c(OCc3ccc(F)c(OC)c3)n2)C1 [compound 214, (R)-2-Chloro-4-((4-((4-fluoro-3-methoxybenzyl)oxy)-2-(3-(methylamino)pyrrolidin-1-yl)pyrimidin-5-yl)thio)benzamide] |
